Experimental data as given in US6814958B1, “Food compositions, compositions for oral cavity and medicinal compositions for preventing or treating periodontosis and method for preventing or treating periodontosis” (priority 1998, dated 2004).

Experiments:
[1] = target: T1, gelatinase derived from HGF cells (Homo sapiens, UniProt P08253); experiment: Inhibitory effect on gelatinase derived from HGF cells (FITC-labelled type IV collagen); assay type: biochemical; details: 42° C; read-out: 50% inhibiting concentration, Gelatinase HGF (converted)
T1 construct: endogenous in cells; host or cells: human gingiva fibroblasts (HGF), serum-free conditioned medium; purified on gelatin Sepharose 4B
T1 sequence (P08253 110-660): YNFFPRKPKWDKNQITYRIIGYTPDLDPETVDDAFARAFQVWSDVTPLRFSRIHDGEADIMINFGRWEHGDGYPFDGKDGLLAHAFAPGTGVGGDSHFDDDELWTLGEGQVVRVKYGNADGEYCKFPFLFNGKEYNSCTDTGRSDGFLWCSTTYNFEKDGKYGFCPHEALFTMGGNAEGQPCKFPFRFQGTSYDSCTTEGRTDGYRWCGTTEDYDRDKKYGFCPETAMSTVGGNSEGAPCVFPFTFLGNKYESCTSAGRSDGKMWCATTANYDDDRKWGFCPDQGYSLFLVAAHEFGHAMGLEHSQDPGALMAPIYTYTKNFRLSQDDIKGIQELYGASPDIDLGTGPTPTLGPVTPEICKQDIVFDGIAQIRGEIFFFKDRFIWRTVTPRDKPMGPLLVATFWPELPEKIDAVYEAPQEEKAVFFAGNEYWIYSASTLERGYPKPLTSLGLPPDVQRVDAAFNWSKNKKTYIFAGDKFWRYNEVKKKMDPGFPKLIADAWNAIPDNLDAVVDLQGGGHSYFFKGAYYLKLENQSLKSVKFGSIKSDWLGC
Procedure: The measurement method was the same as the above method for measuring the inhibitory activity on the collagenase (2-1). However, the reaction temperature was set at 42° C. The measurement was also carried out on tetracycline by the same method.

[2] = target: T2, collagenase derived from human gingiva fibroblasts (HGF cell) (Homo sapiens, UniProt P03956); experiment: Inhibitory effect on collagenase derived from HGF cells (FITC-labelled type I collagen, method of Nagai et al.); assay type: biochemical; details: 37° C, 4 hours; control free of test substance = 100%; read-out: 50% inhibiting concentration, Collagenase HGF (converted)
T2 construct: endogenous in cells; host or cells: human gingiva fibroblasts (HGF), serum-free conditioned medium; purified on CM Sepharose and zinc chelating Sepharose
T2 sequence (P03956 100-469): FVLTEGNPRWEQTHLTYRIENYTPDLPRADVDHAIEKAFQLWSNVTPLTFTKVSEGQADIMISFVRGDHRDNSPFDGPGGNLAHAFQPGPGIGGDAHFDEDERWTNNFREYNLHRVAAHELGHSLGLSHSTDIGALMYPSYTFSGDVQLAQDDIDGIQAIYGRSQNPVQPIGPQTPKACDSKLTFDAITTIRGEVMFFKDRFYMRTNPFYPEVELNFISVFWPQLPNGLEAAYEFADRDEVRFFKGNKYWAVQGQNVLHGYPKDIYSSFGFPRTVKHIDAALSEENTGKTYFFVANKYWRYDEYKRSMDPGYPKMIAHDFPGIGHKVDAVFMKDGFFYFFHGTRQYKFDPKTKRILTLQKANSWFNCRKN
Procedure: The collagenase derived from human gingiva fibroblasts (hereinafter abbreviated as “HGF cell”) for use in this test was prepared in the following manner: human procollagenase which was produced in Dulbecco modification MEM culture medium of non-blood serum using the HGF cells was refined using CM Sepharose™ (manufactured by Pharmacia Company) and zinc chelating Sepharose™ (manufactured by Pharmacia Company). The resulting substance was dissolved in a buffer solution and then was activated. The activation was carried out by incubating using aminophenyl acetic acid mercury (manufactured by Sigma Co.) as an activator at 37° C. for 4 hours.
The measurement of the inhibitory effects on collagenase of the extract containing the natural polyphenol of the above 1-1 was conducted by determining the collagenase activity of the extract. […] Specifically, 40 μl of activated human collagenase (2U/ml), 50 μg of the matrix and a test substance which was dissolved in 40 μl of an assay buffer were mixed. The mixture was allowed to react at 37° C for 4 hours. The collagenase activity of the control (free of the test substance) was regarded as 100%.

[3] = system: collagenase production by human gingiva fibroblasts and human gingival epithelium cells; details: of the medium with no nicotine added; 0.05% nicotine
Procedure: Measurements were carried out by the method described in Test Example 2. However, to the culture medium was added 0.05% nicotine, together with the test substance and 1% fetal bovine serum. The collagenase activity of the culture medium supernatant of the control (the culture medium containing only nicotine) was regarded as 100%, and the relative proportion of the collagenase activity when the test substances were added was determined.

[4] = system: HGF cells and HGK cells; details: of the medium with no nicotine added; 0.05% nicotine
Procedure: HGF cells and HGK cells were inoculated into separate 96-well plates for tissue culture in an amount of 5,000 cells/well. These HGF cells and HGK cells were incubated at 37° C. for 1 day. Then, the incubated HGF cells were diluted in a Dulbecco modification MEM culture medium containing the test substance, 0.05% nicotine and 1% fetal bovine serum, while the incubated HGK cells were diluted in a culture medium for epithelium containing the test substance, 0.05% nicotine and 1% fetal bovine serum. The cells were incubated on the media for 5 days, and the cell proliferation activities of the cells were observed. Meanwhile, as a control was used the culture medium to which only nicotine was added. After the test substances were cultivated for 5 days, the cells were fixed in a 10% formalin solution and staining in crystal violet. The absorbance of the resulting cells at 590 nm was determined to calculate the population of the cells. The relative proportion of the test substances when the value of the control (culture medium to which only nicotine was added) was 100% was obtained.

Structure (SMILES) | IC50 [1] [µM] | IC50 [2] [µM] | increase rate of collagenase production by addition of nicotine [3] [%] | reduction of cell proliferation by addition of nicotine [4] [%]
CN(C)[C@@H]1C(O)=C(C(N)=O)C(=O)[C@@]2(O)C(O)=C3C(=O)c4c(O)cccc4[C@@](C)(O)[C@H]3C[C@@H]12 [Tetracycline] | 19.6 | 5.63 |  | 
CN1CCCC1c1cccnc1 (stereo not shown) [nicotine] |  |  | 380 | 52
